Test results as given in patent publication US20130172378A1, “Combination of BRAF and VEGF Inhibitors” (GlaxoSmithKline LLC, priority 2010, published 2013).

What was measured:
Type in all cases: in vivo, CD-1 nude mice
[1] = Body weight of nude mice bearing A375P F11s xenografts during treatment; settings: in g (unit assumed)
Experimental: (§1) Female CD-1 nude mice of 6-8 weeks in age were used in these studies; all mice were obtained from Charles River Laboratories (Wilmington, Del.). Animals were housed in pathogen free conditions and handled with aseptic technique.
(§2) Mice with similar sized tumors (100-300 mm^3) were identified. The length and width of the tumors were measured by handheld calipers and body weights of the mice were measured using a bench top weighing scale. Tumor volumes were calculated based on the following formula: tumor volume=(Length×Width^2)/2. Mice were block randomized into the required number of dosing groups (n=8 mice/group). The randomization process ensured that the average tumor volume for each dosing group was approximately equal at the beginning of the study and mice with differing tumor volumes were evenly distributed. Mice were placed in groups of eight accordingly and dosed with either vehicle or compound for 36 days either once or twice daily, as summarised in the table below. Mice were weighed and tumors measured twice weekly for the duration of the study using Studylog animal study management software (Studylog Systems, Inc., South San Francisco, Calif., USA).

[2] = tested on: A375P F11s tumor xenografts (human melanoma, BRAF V600E); test: A375P F11s melanoma tumor xenograft efficacy in nude mice
[3] = tested on: A375P F11s tumor xenografts (human melanoma, BRAF V600E); test: as above; remark: listed apart in the source
Experimental: as §1
The A375P F11s cell lines were grown in RPMI growth medium supplemented with 10% fetal bovine serum (FBS), 1% sodium pyruvate and 1% penicillin-streptomycin in a humidified 37° C. chamber with 5% CO2. Cells were expanded to obtain the large numbers of cells required for each injection; cells were grown in log phase, without reaching confluency and passaged regularly.
Detached cells were collected, centrifuged (1500 rpm, 5 min, 4° C.) and rinsed to remove the trypsin solution. Cells were re-suspended in PBS without magnesium or calcium and counted.
Compounds were administered in vehicles as described below.
as §2
Tumor volumes were calculated based on the following formula: tumor volume=(Length×Width^2)/2. Tumor growth curves were created from the mean±standard error of the mean, with n=8 animals per group. The percentage of tumor growth inhibition was calculated on the final day of dosing using the following formula: 1−(tumor volume in drug-treated population/tumor volume in vehicle-treated control population).

[4] = group 3: Compound B 10 mg/kg PO QD, study day 0
[5] = group 3: Compound B 10 mg/kg PO QD, study day 3
[6] = group 3: Compound B 10 mg/kg PO QD, study day 7
[7] = group 3: Compound B 10 mg/kg PO QD, study day 9
[8] = group 3: Compound B 10 mg/kg PO QD, study day 15
[9] = group 3: Compound B 10 mg/kg PO QD, study day 18
[10] = group 3: Compound B 10 mg/kg PO QD, study day 22
[11] = group 3: Compound B 10 mg/kg PO QD, study day 25
[12] = group 3: Compound B 10 mg/kg PO QD, study day 28
[13] = group 3: Compound B 10 mg/kg PO QD, study day 31
[14] = group 4: Compound B 30 mg/kg PO QD, study day 0
[15] = group 4: Compound B 30 mg/kg PO QD, study day 3
[16] = group 4: Compound B 30 mg/kg PO QD, study day 7
[17] = group 4: Compound B 30 mg/kg PO QD, study day 9
[18] = group 4: Compound B 30 mg/kg PO QD, study day 15
[19] = group 4: Compound B 30 mg/kg PO QD, study day 18
[20] = group 4: Compound B 30 mg/kg PO QD, study day 22
[21] = group 4: Compound B 30 mg/kg PO QD, study day 25
[22] = group 4: Compound B 30 mg/kg PO QD, study day 28
[23] = group 4: Compound B 30 mg/kg PO QD, study day 31
[24] = group 4: Compound B 30 mg/kg PO QD, study day 37
[25] = group 4: Compound B 30 mg/kg PO QD, study day 35

With Cc1ccc(Nc2nccc(N(C)c3ccc4c(C)n(C)nc4c3)n2)cc1S(N)(=O)=O [Compound A, 5-[[4-[(2,3-dimethyl-2H-indazol-6-yl)methylamino]-2-pyrimidinyl]amino]-2-methylbenzenesulfonamide] the “Mean body weight of nude mice” value ([1]; group 2: Compound A 100 mg/kg PO BID, study day 0) was 24.98, the “Mean body weight of nude mice” value ([1]; group 2: Compound A 100 mg/kg PO BID, study day 3) was 25.13 and the “Mean body weight of nude mice” value ([1]; group 2: Compound A 100 mg/kg PO BID, study day 7) was 25.63. The “Mean body weight of nude mice” value ([1]; group 2: Compound A 100 mg/kg PO BID, study day 15) was 24.83, the “Mean body weight of nude mice” value ([1]; group 2: Compound A 100 mg/kg PO BID, study day 18) was 25.35 and the “Mean body weight of nude mice” value ([1]; group 2: Compound A 100 mg/kg PO BID, study day 22) was 24.71. The “Mean body weight of nude mice” value ([1]; group 2: Compound A 100 mg/kg PO BID, study day 25) was 24.79, the “Mean body weight of nude mice” value ([1]; group 2: Compound A 100 mg/kg PO BID, study day 28) was 24.91 and the “Mean body weight of nude mice” value ([1]; group 2: Compound A 100 mg/kg PO BID, study day 35) was 24.95. The “Mean body weight of nude mice” value ([1]; group 2: Compound A 100 mg/kg PO BID, study day 37) was 25.00.
With CC(C)(C)c1nc(-c2cccc(NS(=O)(=O)c3c(F)cccc3F)c2F)c(-c2ccnc(N)n2)s1 [Compound B, N-{3-[5-(2-Amino-4-pyrimidinyl)-2-(1,1-dimethylethyl)-1,3-thiazol-4-yl]-2-fluorophenyl}-2,6-difluorobenzenesulfonamide] the “Mean A375P F11s tumor volume” value [2, 4] was 178.5 mm^3, the “Percent Inhibition of A375P F11s tumor volume compared to vehicle treated mice” value (shortened to “Percent Inhibition”) [2, 4] was −3.6% and the “Mean A375P F11s tumor volume” value [2, 5] was 164.5 mm^3. The “Percent Inhibition” value [2, 5] was 34.3%, the “Percent Inhibition” value [2, 6] was 39.0% and the “Mean A375P F11s tumor volume” value [2, 7] was 247.5 mm^3. For the same compound, the “Percent Inhibition” value [2, 7] was 36.6%, the “Mean A375P F11s tumor volume” value [2, 8] was 350.4 mm^3 and the “Percent Inhibition” value [2, 8] was 45.3%. For the same compound, the “Mean A375P F11s tumor volume” value [2, 9] was 469.7 mm^3, the “Percent Inhibition” value [2, 9] was 35.4% and the “Mean A375P F11s tumor volume” value [2, 10] was 494.2 mm^3. For the same compound, the “Percent Inhibition” value [2, 10] was 47.2%, the “Mean A375P F11s tumor volume” value [2, 11] was 581.5 mm^3 and the “Percent Inhibition” value [2, 11] was 46.6%. For the same compound, the “Mean A375P F11s tumor volume” value [2, 12] was 682.0 mm^3, the “Percent Inhibition” value [2, 12] was 45.6% and the “Mean A375P F11s tumor volume” value [2, 13] was 830.5 mm^3. The “Mean A375P F11s tumor volume” value ([2]; group 3: Compound B 10 mg/kg PO QD, study day 35) was 1,105.5 mm^3, the “Mean A375P F11s tumor volume” value [2, 14] was 156.9 mm^3 and the “Percent Inhibition” value [2, 14] was 8.9%. For the same compound, the “Percent Inhibition” value [2, 15] was 42.4%, the “Mean A375P F11s tumor volume” value [2, 16] was 104.1 mm^3 and the “Percent Inhibition” value [2, 16] was 66.5%. The “Percent Inhibition” value [2, 17] was 74.5%, the “Mean A375P F11s tumor volume” value [2, 18] was 94.0 mm^3 and the “Percent Inhibition” value [2, 18] was 85.3%. The “Mean A375P F11s tumor volume” value [2, 19] was 104.4 mm^3, the “Percent Inhibition” value [2, 19] was 85.6% and the “Percent Inhibition” value [2, 20] was 87.6%. The “Percent Inhibition” value [2, 21] was 87.0%, the “Mean A375P F11s tumor volume” value [2, 22] was 148.7 mm^3 and the “Percent Inhibition” value [2, 22] was 88.1%. The “Mean A375P F11s tumor volume” value [2, 23] was 166.1 mm^3, the “Mean A375P F11s tumor volume” value [2, 24] was 207.6 mm^3 and the “Mean body weight of nude mice” value [1, 4] was 25.71. The “Mean body weight of nude mice” value [1, 5] was 26.14, the “Mean body weight of nude mice” value [1, 6] was 26.13 and the “Mean body weight of nude mice” value [1, 7] was 26.29. The “Mean body weight of nude mice” value [1, 8] was 25.69, the “Mean body weight of nude mice” value [1, 9] was 26.44 and the “Mean body weight of nude mice” value [1, 10] was 26.00. The “Mean body weight of nude mice” value [1, 11] was 26.45, the “Mean body weight of nude mice” value [1, 12] was 26.55 and the “Mean body weight of nude mice” value [1, 13] was 27.11. The “Mean body weight of nude mice” value [1, 14] was 25.49, the “Mean body weight of nude mice” value [1, 15] was 25.38 and the “Mean body weight of nude mice” value [1, 16] was 25.15. For the same compound, the “Mean body weight of nude mice” value [1, 17] was 25.35, the “Mean body weight of nude mice” value [1, 18] was 24.46 and the “Mean body weight of nude mice” value [1, 19] was 24.84. The “Mean body weight of nude mice” value [1, 20] was 24.67, the “Mean body weight of nude mice” value [1, 21] was 24.87 and the “Mean body weight of nude mice” value [1, 22] was 24.79. The “Mean body weight of nude mice” value [1, 23] was 24.83, the “Mean body weight of nude mice” value [1, 25] was 24.41 and the “Mean body weight of nude mice” value [1, 24] was 24.65. For the same compound, the “Mean A375P F11s tumor volume” value [3, 6] was 189.5 mm^3, the “Mean A375P F11s tumor volume” value [3, 15] was 144.2 mm^3 and the “Mean A375P F11s tumor volume” value [3, 17] was 99.5 mm^3. For the same compound, the “Mean A375P F11s tumor volume” value [3, 20] was 116.4 mm^3, the “Mean A375P F11s tumor volume” value [3, 21] was 142.1 mm^3 and the “Mean A375P F11s tumor volume” value [3, 25] was 168.1 mm^3.
